pIC50: −log10 of the molar value.
Key:
MCF10A cells [1] = assay: Cell growth study (SRB assay), MCF10A; type: cell-based; conditions: 0.2% serum medium, four days
Method: Either 4T1 cells or MCF10A cells were seeded in 96-well plate at 5×10^3 cells per well. […] After incubation for four days, cell viability was determined by SRB assay.

MCF10A cells [2] = assay: Wound healing assay; type: cell-based; conditions: TGF-β1 2 ng/mL, 1 μM, 16 h
Method: MCF10A cells were seeded at 2×10^5 cells/well in 6-well plate. When each well was occupied by cells over 80% of the area, 10% FBS was changed to 0.2% FBS. […] Wound area change from 0 to 16 h was calculated based on Image J program (National Institutes of Health, MD, USA) based on phase-contrast images of cells taken by microscope.

VEGF-R1 = VEGF-R1 (Homo sapiens (Human), UniProt P17948); assay: Kinase selectivity profiling; type: biochemical
Method: (§1) Kinase assays were performed in 96-well FlashPlates™ from Perkin Elmer in a […]. […] The reaction cocktail contained 70 mM HEPES-NaOH, pH 7.5, 3 mM MnCl2, 3 μM Na3VO4, 1.2 mM DTT, 1 μM [γ-^33P]-ATP (approximately 6×10^5 cpm per well), protein kinase (variable amounts), and substrate (variable amounts). The reaction cocktails were incubated at 30° C. for 60 min. The reaction was stopped with 50 μL of 2% (v/v) H3PO4, and plates were aspirated and washed two times with 200 μL 0.9% (w/v) NaCl. ALL assays were performed with a BeckmanCoulter Biomek 2000/SL robotic system. Incorporation of ^33Pi (counting of “cpm”) was determined with a microplate scintillation counter.

PAK1 = PAK1 (Homo sapiens (Human), UniProt Q13153); assay: Kinase selectivity profiling; type: biochemical
PAK1, sequence (Q13153 whole entry): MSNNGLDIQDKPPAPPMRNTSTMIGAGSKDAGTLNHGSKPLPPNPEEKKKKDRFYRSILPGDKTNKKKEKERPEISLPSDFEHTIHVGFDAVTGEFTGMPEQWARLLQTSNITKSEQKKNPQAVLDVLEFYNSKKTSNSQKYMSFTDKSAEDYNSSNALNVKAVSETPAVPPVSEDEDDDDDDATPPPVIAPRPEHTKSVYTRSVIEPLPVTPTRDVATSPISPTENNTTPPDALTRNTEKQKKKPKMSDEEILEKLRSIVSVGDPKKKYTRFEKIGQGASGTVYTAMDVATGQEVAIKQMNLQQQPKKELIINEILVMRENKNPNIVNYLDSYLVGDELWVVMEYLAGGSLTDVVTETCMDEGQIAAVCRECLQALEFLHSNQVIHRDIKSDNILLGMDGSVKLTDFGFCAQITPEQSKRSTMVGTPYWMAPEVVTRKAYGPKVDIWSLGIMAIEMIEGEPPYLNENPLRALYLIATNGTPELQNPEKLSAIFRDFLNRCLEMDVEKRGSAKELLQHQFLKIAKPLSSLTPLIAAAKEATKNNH
Method: as §1

ALK2 = ALK2 (Homo sapiens (Human), UniProt Q04771); assay: Kinase selectivity profiling; type: biochemical
ALK2, sequence (Q04771 21-509, species assumed): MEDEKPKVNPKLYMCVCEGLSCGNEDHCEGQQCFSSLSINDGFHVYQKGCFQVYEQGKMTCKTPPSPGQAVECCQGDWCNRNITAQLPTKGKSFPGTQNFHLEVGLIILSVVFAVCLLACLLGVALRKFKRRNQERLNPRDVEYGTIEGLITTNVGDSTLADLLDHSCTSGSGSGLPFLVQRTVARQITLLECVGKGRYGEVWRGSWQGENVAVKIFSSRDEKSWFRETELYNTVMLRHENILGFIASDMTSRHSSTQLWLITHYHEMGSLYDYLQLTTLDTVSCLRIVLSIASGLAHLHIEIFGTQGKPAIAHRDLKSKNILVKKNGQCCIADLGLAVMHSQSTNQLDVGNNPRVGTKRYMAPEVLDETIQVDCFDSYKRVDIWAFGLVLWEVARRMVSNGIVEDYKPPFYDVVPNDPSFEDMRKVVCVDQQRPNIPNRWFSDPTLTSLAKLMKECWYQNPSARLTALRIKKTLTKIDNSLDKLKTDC
Method: as §1

PKCα = PKCα (Homo sapiens (Human), UniProt P17252); assay: Kinase selectivity profiling; type: biochemical
Method: as §1

VEGF-R3 = VEGF-R3 (Homo sapiens (Human), UniProt P35916); assay: Kinase selectivity profiling; type: biochemical
Method: as §1

PKA = PKA (Homo sapiens (Human), UniProt P17612); assay: Kinase selectivity profiling; type: biochemical
Method: as §1

DAPK1 = DAPK1 (Homo sapiens (Human), UniProt P53355); assay: Kinase selectivity profiling; type: biochemical
Method: as §1

ALK3 = ALK3 (Homo sapiens (Human), UniProt P36894); assay: Kinase selectivity profiling; type: biochemical
Method: as §1

CHK1 = CHK1 (Homo sapiens (Human), UniProt O14757); assay: Kinase selectivity profiling; type: biochemical
Method: as §1

MEK1 wt = MEK1 wt (Homo sapiens (Human), UniProt Q02750); assay: Kinase selectivity profiling; type: biochemical
Method: as §1

MET wt = MET wt (Homo sapiens (Human), UniProt P08581); assay: Kinase selectivity profiling; type: biochemical
Method: as §1

GSK3α = GSK3α (Homo sapiens (Human), UniProt P49840); assay: Kinase selectivity profiling; type: biochemical
Method: as §1

RPS6KA1 = RPS6KA1 (Homo sapiens (Human), UniProt Q15418); assay: Kinase selectivity profiling; type: biochemical
RPS6KA1, sequence (Q15418 whole entry, species assumed): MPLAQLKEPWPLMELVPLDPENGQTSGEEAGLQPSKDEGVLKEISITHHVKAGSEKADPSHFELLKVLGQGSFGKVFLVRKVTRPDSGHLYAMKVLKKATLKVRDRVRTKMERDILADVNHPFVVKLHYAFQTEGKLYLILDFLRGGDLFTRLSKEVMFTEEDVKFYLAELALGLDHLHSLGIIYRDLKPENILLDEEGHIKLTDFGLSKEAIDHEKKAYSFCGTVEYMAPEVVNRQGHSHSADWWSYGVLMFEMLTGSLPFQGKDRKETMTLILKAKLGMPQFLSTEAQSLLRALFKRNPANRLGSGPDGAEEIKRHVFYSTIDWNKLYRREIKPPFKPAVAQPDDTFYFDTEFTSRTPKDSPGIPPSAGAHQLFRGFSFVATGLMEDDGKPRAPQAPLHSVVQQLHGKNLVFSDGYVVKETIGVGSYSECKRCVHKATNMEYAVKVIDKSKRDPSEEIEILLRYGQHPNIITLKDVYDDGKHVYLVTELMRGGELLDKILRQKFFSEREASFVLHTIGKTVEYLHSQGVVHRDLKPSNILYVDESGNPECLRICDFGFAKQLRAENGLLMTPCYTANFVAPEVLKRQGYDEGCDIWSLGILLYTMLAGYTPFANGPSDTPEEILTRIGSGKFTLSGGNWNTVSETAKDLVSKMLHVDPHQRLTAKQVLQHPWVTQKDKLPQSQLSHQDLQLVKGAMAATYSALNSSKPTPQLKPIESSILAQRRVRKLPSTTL
Method: as §1

MST1 = MST1 (Homo sapiens (Human), UniProt Q13043); assay: Kinase selectivity profiling; type: biochemical
MST1, sequence (Q13043 whole entry): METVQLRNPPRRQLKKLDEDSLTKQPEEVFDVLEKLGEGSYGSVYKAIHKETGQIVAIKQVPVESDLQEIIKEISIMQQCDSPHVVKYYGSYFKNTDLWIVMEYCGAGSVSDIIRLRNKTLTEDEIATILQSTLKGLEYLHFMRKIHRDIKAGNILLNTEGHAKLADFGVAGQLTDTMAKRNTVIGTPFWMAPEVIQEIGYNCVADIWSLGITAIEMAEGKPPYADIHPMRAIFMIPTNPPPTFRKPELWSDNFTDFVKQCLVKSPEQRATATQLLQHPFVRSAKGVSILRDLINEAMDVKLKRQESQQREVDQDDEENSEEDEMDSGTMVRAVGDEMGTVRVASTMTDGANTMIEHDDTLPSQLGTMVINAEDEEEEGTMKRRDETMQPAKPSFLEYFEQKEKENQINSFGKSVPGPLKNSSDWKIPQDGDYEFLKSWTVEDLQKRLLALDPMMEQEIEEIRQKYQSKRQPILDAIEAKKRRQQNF
Method: as §1

CDK1/CycA = CDK1/CycA (Homo sapiens (Human), UniProt P06493); assay: Kinase selectivity profiling; type: biochemical
CDK1/CycA, sequence (P06493 whole entry, species assumed): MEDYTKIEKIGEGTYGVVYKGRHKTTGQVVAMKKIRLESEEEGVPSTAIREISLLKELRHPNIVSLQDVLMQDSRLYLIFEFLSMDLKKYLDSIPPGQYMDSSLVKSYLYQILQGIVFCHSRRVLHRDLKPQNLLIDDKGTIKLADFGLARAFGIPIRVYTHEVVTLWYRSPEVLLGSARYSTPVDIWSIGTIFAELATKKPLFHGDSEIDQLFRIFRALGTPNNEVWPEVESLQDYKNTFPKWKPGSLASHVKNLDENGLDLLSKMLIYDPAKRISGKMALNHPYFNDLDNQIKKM
CDK1/CycA, sequence (P20248 whole entry partner, species assumed): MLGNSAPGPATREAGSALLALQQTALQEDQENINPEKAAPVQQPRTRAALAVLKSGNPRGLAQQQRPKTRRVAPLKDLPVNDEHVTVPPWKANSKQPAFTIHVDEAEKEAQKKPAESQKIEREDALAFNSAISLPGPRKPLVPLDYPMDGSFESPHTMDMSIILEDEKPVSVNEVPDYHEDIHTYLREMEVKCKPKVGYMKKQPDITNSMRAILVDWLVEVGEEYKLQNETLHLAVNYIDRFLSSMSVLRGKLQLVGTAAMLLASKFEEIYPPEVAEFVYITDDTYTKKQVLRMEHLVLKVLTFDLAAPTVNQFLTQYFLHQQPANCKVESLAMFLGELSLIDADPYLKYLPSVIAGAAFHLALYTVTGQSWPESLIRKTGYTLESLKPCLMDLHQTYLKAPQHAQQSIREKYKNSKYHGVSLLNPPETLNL
Method: as §1

PDGFRα wt = PDGFRα wt (Homo sapiens (Human), UniProt P16234); assay: Kinase selectivity profiling; type: biochemical
PDGFRα wt, sequence (P16234 24-1089): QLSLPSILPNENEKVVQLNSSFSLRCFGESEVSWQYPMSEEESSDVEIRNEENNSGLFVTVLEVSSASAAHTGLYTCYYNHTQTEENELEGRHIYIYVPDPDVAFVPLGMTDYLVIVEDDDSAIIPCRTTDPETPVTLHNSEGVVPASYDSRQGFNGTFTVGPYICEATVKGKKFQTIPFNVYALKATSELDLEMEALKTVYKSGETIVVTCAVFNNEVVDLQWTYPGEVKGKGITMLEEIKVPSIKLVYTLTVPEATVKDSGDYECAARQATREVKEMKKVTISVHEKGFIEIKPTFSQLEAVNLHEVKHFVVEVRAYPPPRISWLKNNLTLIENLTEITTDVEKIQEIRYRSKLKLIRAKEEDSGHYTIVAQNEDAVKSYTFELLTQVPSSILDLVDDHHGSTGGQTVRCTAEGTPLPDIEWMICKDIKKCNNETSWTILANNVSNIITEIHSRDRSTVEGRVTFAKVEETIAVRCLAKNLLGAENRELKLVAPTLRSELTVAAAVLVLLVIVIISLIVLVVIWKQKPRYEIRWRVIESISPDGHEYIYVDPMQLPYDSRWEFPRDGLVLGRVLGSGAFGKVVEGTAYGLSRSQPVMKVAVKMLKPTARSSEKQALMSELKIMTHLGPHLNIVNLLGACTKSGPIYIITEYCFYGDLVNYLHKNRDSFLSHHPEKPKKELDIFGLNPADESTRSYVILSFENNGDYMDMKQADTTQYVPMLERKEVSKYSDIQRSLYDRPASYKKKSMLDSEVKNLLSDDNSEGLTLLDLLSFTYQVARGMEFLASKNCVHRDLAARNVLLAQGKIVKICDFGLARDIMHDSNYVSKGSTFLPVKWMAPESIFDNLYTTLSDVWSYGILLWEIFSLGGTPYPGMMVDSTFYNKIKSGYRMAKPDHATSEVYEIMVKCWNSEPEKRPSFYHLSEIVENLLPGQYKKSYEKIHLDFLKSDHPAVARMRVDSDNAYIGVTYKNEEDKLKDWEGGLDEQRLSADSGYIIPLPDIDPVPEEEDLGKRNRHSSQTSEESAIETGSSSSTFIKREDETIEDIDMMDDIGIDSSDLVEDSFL
Method: as §1

ROCK1 = ROCK1 (Homo sapiens (Human), UniProt Q13464); assay: Kinase selectivity profiling; type: biochemical
Method: as §1

[3] = read-out: % inhibition at 1 μM, 1 μM
[4] = read-out: % inhibition at 10 μM, 10 μM

Structure (SMILES): Cc1cccc(-c2[nH]c(CNc3ccccc3F)nc2-c2ccc3ncnn3c2)n1 [Example 2, N-((4-([1,2,4]triazolo[1,5-a]pyridin-6-yl)-5-(6-methylpyridin-2-yl)-1H-imidazol-2-yl)methyl)-2-fluoroaniline]
- MCF10A cell growth (MCF10A cells [1]): slightly increased
- TGF-β1-induced cell migration (MCF10A cells [2]): suppressed
- pIC50 (VEGF-R1): 6.41
- inhibition at 1 µM (PAK1; [3]): -7%
- inhibition at 10 µM (PAK1; [4]): -3%
- inhibition at 1 µM (ALK2; [3]): 17%
- inhibition at 10 µM (ALK2; [4]): 71%
- inhibition at 1 µM (PKCα; [3]): -9%
- inhibition at 10 µM (PKCα; [4]): 4%
- pIC50 (VEGF-R3): 6.59
- inhibition at 1 µM (PKA; [3]): -7%
- inhibition at 10 µM (PKA; [4]): 18%
- inhibition at 1 µM (DAPK1; [3]): 5%
- inhibition at 10 µM (DAPK1; [4]): 11%
- inhibition at 1 µM (ALK3; [3]): -6%
- inhibition at 10 µM (ALK3; [4]): 27%
- inhibition at 1 µM (CHK1; [3]): -2%
- inhibition at 10 µM (CHK1; [4]): 5%
- inhibition at 1 µM (MEK1 wt; [3]): 14%
- inhibition at 10 µM (MEK1 wt; [4]): 47%
- inhibition at 1 µM (MET wt; [3]): -5%
- inhibition at 10 µM (MET wt; [4]): 12%
- inhibition at 1 µM (GSK3α; [3]): 10%
- inhibition at 10 µM (GSK3α; [4]): 15%
- inhibition at 1 µM (RPS6KA1; [3]): 6%
- inhibition at 10 µM (RPS6KA1; [4]): 14%
- inhibition at 1 µM (MST1; [3]): -7%
- inhibition at 10 µM (MST1; [4]): 3%
- inhibition at 1 µM (CDK1/CycA; [3]): 5%
- inhibition at 10 µM (CDK1/CycA; [4]): 2%
- inhibition at 1 µM (PDGFRα wt; [3]): 53%
- inhibition at 10 µM (PDGFRα wt; [4]): 91%
- inhibition at 1 µM (ROCK1; [3]): 3%
- inhibition at 10 µM (ROCK1; [4]): 9%

Source: patent publication USRE47141E1, “Methods of treating fibrosis, cancer and vascular injuries” (EWHA University—Industry Collaboration Foundation, priority 2010, dated 2018)
